# Read-outs that look alike come from different tables or passages of the source.
# Molecular target: T1, androgen receptor (Homo sapiens, UniProt P10275, T878A)
# T1 construct: host or cells: LNCaP.FGC
# Experiment: Androgen receptor degradation assay using Western blot analysis
# Format: cell-based
# Protocol: Cells not treated with any of the above-mentioned compounds are used as a negative control.
# The internal loading control GAPDH was detected using a mouse monoclonal antibody (1:5000) (GTX627408, GeneTex International Corp., HsinChu City, Taiwan R.O.C.) and a goat anti-mouse HRP-conjugated secondary antibody (1:5000 dilution) (C04001, Croyez Bioscience Co., Ltd., Taipei City, Taiwan R.O.C.).
# AR remaining percentage was determined by the intensity difference of AR signals (each was normalized by the corresponding internal loading control GAPDH) between the protein samples from the untreated cells (100%) and those from the treated cells. “Cpd. #” indicates the compound number hereinabove.
# In addition, several compounds were selected to prepare a treatment stock solutions at 100 nM in RPMI medium. The treatment stock solutions were separately serially diluted (10×) with RPMI medium for treating LNCaP.FGC cells seeded with 2×10^5 cells per well in 24-well tissue culture plates. A calibration curve was determined by the serial diluted samples for each compound, and the concentration needed for 50% AR degradation (AR DC50) for each compound was calculated.
# [1] = 24 h, LNCaP.FGC cells, 100 nM, 24 hr, normalized to GAPDH, untreated cells = 100%; read-out: Androgen Receptor Remaining (%)
# [2] = LNCaP.FGC cells, serial 10x dilutions from 100 nM; read-out: AR DC50 (concentration needed for 50% AR degradation)
# [3] = 24 h, read-out: Androgen Receptor Remaining (%), LNCaP.FGC cells, 100 nM, 24 hr, normalized to GAPDH, untreated cells = 100%
# [4] = read-out: AR DC50 (concentration needed for 50% AR degradation); LNCaP.FGC cells, serial 10x dilutions from 100 nM
# T1 sequence (P10275 whole entry T878A): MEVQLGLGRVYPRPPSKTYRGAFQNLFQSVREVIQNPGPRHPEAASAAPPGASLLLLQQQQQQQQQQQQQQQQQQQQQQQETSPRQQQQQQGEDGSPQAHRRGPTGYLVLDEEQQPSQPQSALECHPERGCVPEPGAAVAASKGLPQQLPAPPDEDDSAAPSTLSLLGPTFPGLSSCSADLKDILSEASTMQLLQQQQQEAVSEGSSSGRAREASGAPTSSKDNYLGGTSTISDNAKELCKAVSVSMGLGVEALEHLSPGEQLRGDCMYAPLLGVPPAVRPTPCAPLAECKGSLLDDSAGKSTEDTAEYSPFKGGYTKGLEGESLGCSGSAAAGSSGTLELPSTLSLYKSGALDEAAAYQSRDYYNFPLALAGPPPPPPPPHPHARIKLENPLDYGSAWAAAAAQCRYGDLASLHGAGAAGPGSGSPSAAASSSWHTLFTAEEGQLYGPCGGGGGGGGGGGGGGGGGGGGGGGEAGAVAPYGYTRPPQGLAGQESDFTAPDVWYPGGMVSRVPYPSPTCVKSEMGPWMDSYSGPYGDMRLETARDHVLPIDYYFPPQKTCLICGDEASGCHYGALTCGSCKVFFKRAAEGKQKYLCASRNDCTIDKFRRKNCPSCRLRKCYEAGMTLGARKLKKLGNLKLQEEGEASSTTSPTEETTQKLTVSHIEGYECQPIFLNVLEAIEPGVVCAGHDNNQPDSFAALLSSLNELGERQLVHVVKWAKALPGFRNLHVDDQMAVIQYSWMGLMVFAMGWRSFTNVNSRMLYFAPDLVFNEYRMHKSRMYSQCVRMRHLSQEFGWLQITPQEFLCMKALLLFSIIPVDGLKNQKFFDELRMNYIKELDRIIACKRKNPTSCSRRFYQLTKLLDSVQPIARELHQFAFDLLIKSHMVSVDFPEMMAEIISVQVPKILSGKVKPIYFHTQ
# T1 sequence (Q96SW2 whole entry partner): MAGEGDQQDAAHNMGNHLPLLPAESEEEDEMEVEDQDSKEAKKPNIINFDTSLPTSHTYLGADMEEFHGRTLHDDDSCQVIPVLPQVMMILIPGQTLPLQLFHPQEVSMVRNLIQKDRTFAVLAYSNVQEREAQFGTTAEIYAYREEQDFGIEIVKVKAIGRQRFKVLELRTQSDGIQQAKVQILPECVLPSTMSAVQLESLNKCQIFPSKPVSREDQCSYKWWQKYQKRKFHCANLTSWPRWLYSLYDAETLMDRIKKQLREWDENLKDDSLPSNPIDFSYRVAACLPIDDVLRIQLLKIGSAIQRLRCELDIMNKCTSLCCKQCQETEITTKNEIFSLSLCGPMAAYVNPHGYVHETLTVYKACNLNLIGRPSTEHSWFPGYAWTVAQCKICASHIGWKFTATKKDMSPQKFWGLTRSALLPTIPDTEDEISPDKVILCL
SMILES,remaining activity at 0.1 µM [3] [%],DC50 [4] [nM],also measured
Cn1c2c(c3ccc(NC(=O)CN4CCN(c5ccc(C(=O)N[C@H]6CC[C@H](Oc7ccc(C#N)c(Cl)c7)CC6)nn5)CC4)cc31)C(=O)N(C1CCC(=O)NC1=O)C2=O (stereo partly shown) [Compound 41],–,–,remaining activity at 0.1 µM [1]: 81%
Cn1c2c(c3ccc(NC(=O)CN4CCN(c5ccc(C(=O)N[C@H]6C(C)(C)[C@H](Oc7ccc(C#N)c(Cl)c7)C6(C)C)cn5)CC4)cc31)C(=O)N(C1CCC(=O)NC1=O)C2=O (stereo partly shown) [Compound 42],–,–,remaining activity at 0.1 µM [1]: 30%; DC50 [2]: 10 to 25 nM
Cn1c2c(c3cccc(OCCCN4CCN(c5ccc(C(=O)N[C@H]6CC[C@H](Oc7ccc(C#N)c(Cl)c7)CC6)nn5)CC4)c31)C(=O)N(C1CCC(=O)NC1=O)C2=O (stereo partly shown) [Compound 43],–,–,remaining activity at 0.1 µM [1]: 26%; DC50 [2]: 25 to 100 nM
Cn1c2c(c3ccc(OCCCN4CCC(c5ncc(C(=O)N[C@H]6CC[C@H](Oc7ccc(C#N)c(Cl)c7)CC6)cn5)CC4)cc31)C(=O)N(C1CCC(=O)NC1=O)C2=O (stereo partly shown) [Compound 44],–,–,DC50 [2]: 25 to 100 nM
Cn1c2c(c3ccc(OCCN4CCC(c5ncc(C(=O)N[C@H]6CC[C@H](Oc7ccc(C#N)c(Cl)c7)CC6)cn5)CC4)cc31)C(=O)N(C1CCC(=O)NC1=O)C2=O (stereo partly shown) [Compound 45],–,–,DC50 [2]: 25 to 100 nM
CCn1c2c(c3ccc(OCCCN4CCCN(c5ccc(C(=O)N[C@H]6CC[C@H](Oc7ccc(C#N)c(Cl)c7)CC6)nn5)CC4)cc31)C(=O)N(C1CCC(=O)NC1=O)C2=O (stereo partly shown) [Compound 46],20,10 to 25,–
CCn1c2c(c3ccc(OCCCN4C5CCC4CN(c4ccc(C(=O)N[C@H]6CC[C@H](Oc7ccc(C#N)c(Cl)c7)CC6)nn4)C5)cc31)C(=O)N(C1CCC(=O)NC1=O)C2=O (stereo partly shown) [Compound 47],19,10 to 25,–
CCn1c2c(c3ccc(OCCCN4CCC5(CC4)CN(c4ccc(C(=O)N[C@H]6CC[C@H](Oc7ccc(C#N)c(Cl)c7)CC6)nn4)C5)cc31)C(=O)N(C1CCC(=O)NC1=O)C2=O (stereo partly shown) [Compound 48],20,< 10,–
CCn1c2c(c3ccc(OCCCN4CCC5(CC4)CN(c4ccc(C(=O)N[C@H]6C(C)(C)[C@H](Oc7ccc(C#N)c(Cl)c7)C6(C)C)nn4)C5)cc31)C(=O)N(C1CCC(=O)NC1=O)C2=O (stereo partly shown) [Compound 49],36,25 to 100,–
Cn1c2c(c3ccc(NC(=O)CN4CCN(c5ccc(C(=O)N[C@H]6C(C)(C)[C@H](Oc7ccc(C#N)c(Cl)c7)C6(C)C)nn5)CC4)cc31)C(=O)N(C1CCC(=O)NC1=O)C2=O (stereo partly shown) [Compound 50],–,–,remaining activity at 0.1 µM [1]: 45%; DC50 [2]: 25 to 100 nM
CCn1c2c(c3ccc(OCCN4CCC5(CC4)CN(c4ccc(C(=O)N[C@H]6C(C)(C)[C@H](Oc7ccc(C#N)c(Cl)c7)C6(C)C)nn4)C5)cc31)C(=O)N(C1CCC(=O)NC1=O)C2=O (stereo partly shown) [Compound 51],20,25 to 100,–
CCn1c2c(c3ccc(OCCN4CCCN(c5ccc(C(=O)N[C@H]6CC[C@H](Oc7ccc(C#N)c(Cl)c7)CC6)nn5)CC4)cc31)C(=O)N(C1CCC(=O)NC1=O)C2=O (stereo partly shown) [Compound 52],42,10 to 25,–
CCn1c2c(c3ccc(OCCN4CCCN(c5ccc(C(=O)N[C@H]6C(C)(C)[C@H](Oc7ccc(C#N)c(Cl)c7)C6(C)C)nn5)CC4)cc31)C(=O)N(C1CCC(=O)NC1=O)C2=O (stereo partly shown) [Compound 53],77,–,–
CCn1c2c(c3ccc(OCCCN4CCCN(c5ccc(C(=O)N[C@H]6C(C)(C)[C@H](Oc7ccc(C#N)c(Cl)c7)C6(C)C)nn5)CC4)cc31)C(=O)N(C1CCC(=O)NC1=O)C2=O (stereo partly shown) [Compound 54],72,–,–
CCn1c2c(c3ccc(OCCN4C[C@H](C)N(c5ccc(C(=O)N[C@H]6CC[C@H](Oc7ccc(C#N)c(Cl)c7)CC6)nn5)C[C@H]4C)cc31)C(=O)N(C1CCC(=O)NC1=O)C2=O (stereo partly shown) [Compound 55],40,25 to 100,–
CCn1c2c(c3ccc(NC(=O)CN4CCN(c5ccc(C(=O)N[C@H]6C(C)(C)[C@H](Oc7ccc(C#N)c(Cl)c7)C6(C)C)cn5)CC4)cc31)C(=O)N(C1CCC(=O)NC1=O)C2=O (stereo partly shown) [Compound 56],4,25 to 100,–
CCn1c2c(c3ccc(OCCN4CCN(c5ccc(C(=O)N[C@H]6CC[C@H](Oc7ccc(C#N)c(Cl)c7)CC6)nn5)[C@@H](C)C4)cc31)C(=O)N(C1CCC(=O)NC1=O)C2=O (stereo partly shown) [Compound 57],53,–,–
CC[C@H]1CN(CCOc2ccc3c4c(n(CC)c3c2)C(=O)N(C2CCC(=O)NC2=O)C4=O)CCN1c1ccc(C(=O)N[C@H]2CC[C@H](Oc3ccc(C#N)c(Cl)c3)CC2)nn1 (stereo partly shown) [Compound 58],65,–,–
CCn1c2c(c3ccc(OCCCN4C[C@H](C)N(c5ccc(C(=O)N[C@H]6CC[C@H](Oc7ccc(C#N)c(Cl)c7)CC6)nn5)C[C@H]4C)cc31)C(=O)N(C1CCC(=O)NC1=O)C2=O (stereo partly shown) [Compound 59],66,–,–

SMILES,remaining activity at 0.1 µM [3] [%],DC50 [4] [nM],also measured
CC[C@H]1CN(CCCOc2ccc3c4c(n(CC)c3c2)C(=O)N(C2CCC(=O)NC2=O)C4=O)CCN1c1ccc(C(=O)N[C@H]2CC[C@H](Oc3ccc(C#N)c(Cl)c3)CC2)nn1 (stereo partly shown) [Compound 60],57,–,–
CCn1c2c(c3ccc(OCCCN4CCN(c5cnc(C(=O)N[C@H]6CC[C@H](Oc7ccc(C#N)c(Cl)c7)CC6)cn5)CC4)cc31)C(=O)N(C1CCC(=O)NC1=O)C2=O (stereo partly shown) [Compound 61],96,–,–
CCn1c2c(c3ccc(OCCN4CCN(c5cnc(C(=O)N[C@H]6CC[C@H](Oc7ccc(C#N)c(Cl)c7)CC6)cn5)CC4)cc31)C(=O)N(C1CCC(=O)NC1=O)C2=O (stereo partly shown) [Compound 62],65,–,–
CCn1c2c(c3ccc(OCCCN4CCN(c5ccc(C(=O)N[C@H]6CC[C@H](Oc7ccc(C#N)c(Cl)c7)CC6)nn5)CC4)cc31)C(=O)N([C@H]1CCC(=O)NC1=O)C2=O [Compound 63],–,10 to 25,–
CCn1c2c(c3ccc(OCCN4C5CCC4CN(c4ccc(C(=O)N[C@H]6CC[C@H](Oc7ccc(C#N)c(Cl)c7)CC6)nn4)C5)cc31)C(=O)N(C1CCC(=O)NC1=O)C2=O (stereo partly shown) [Compound 64],40,25 to 100,–
CCn1c2c(c3ccc(OCCCN4CCN(c5ccc(C(=O)N[C@H]6CC[C@H](Oc7ccc(C#N)c(Cl)c7)CC6)nn5)[C@@H](C)C4)cc31)C(=O)N(C1CCC(=O)NC1=O)C2=O (stereo partly shown) [Compound 65],32,25 to 100,–
Cn1c2c(c3ccc(NC(=O)CN4CCN(c5ccc(C(=O)N[C@H]6CC[C@H](Oc7ccc(C#N)c(Cl)c7)CC6)cn5)CC4)cc31)C(=O)N(C1CCC(=O)NC1=O)C2=O (stereo partly shown) [Compound 66],–,–,remaining activity at 0.1 µM [1]: 100%
Cn1c2c(c3ccc(NC(=O)CN4CCCN(c5ccc(C(=O)N[C@H]6CC[C@H](Oc7ccc(C#N)c(Cl)c7)CC6)nn5)CC4)cc31)C(=O)N(C1CCC(=O)NC1=O)C2=O (stereo partly shown) [Compound 68],–,–,remaining activity at 0.1 µM [1]: 81%
Cn1c2c(c3ccc(NC(=O)CN4CCC5(CC4)CN(c4ccc(C(=O)N[C@H]6C(C)(C)[C@H](Oc7ccc(C#N)c(Cl)c7)C6(C)C)nn4)C5)cc31)C(=O)N(C1CCC(=O)NC1=O)C2=O (stereo partly shown) [Compound 69],–,–,remaining activity at 0.1 µM [1]: 51%
CCn1c2c(c3ccc(OCCN4CC5CCC(C4)N5c4ccc(C(=O)N[C@H]5CC[C@H](Oc6ccc(C#N)c(Cl)c6)CC5)nn4)cc31)C(=O)N(C1CCC(=O)NC1=O)C2=O (stereo partly shown) [Compound 70],62,–,–
CCn1c2c(c3ccc(OCCCN4CC5CCC(C4)N5c4ccc(C(=O)N[C@H]5CC[C@H](Oc6ccc(C#N)c(Cl)c6)CC5)nn4)cc31)C(=O)N(C1CCC(=O)NC1=O)C2=O (stereo partly shown) [Compound 71],77,–,–
CCn1c2c(c3ccc(OCCCN4CC5(CCN(c6ccc(C(=O)N[C@H]7CC[C@H](Oc8ccc(C#N)c(Cl)c8)CC7)nn6)CC5)C4)cc31)C(=O)N(C1CCC(=O)NC1=O)C2=O (stereo partly shown) [Compound 72],–,< 10,"Androgen Receptor Remaining (%) (LNCaP.FGC cells, 100 nM, 24 hr, normalized to GAPDH, untreated cells = 100%): 26%"
CCn1c2c(c3ccc(OCCN4CCN(c5ccc(C(=O)N[C@H]6CC[C@H](Oc7ccc(C#N)c(Cl)c7)CC6)nn5)C[C@H]4C)cc31)C(=O)N(C1CCC(=O)NC1=O)C2=O (stereo partly shown) [Compound 73],41,25 to 100,–
CCn1c2c(c3ccc(OCCCN4CCN(c5ccc(C(=O)N[C@H]6CC[C@H](Oc7ccc(C#N)c(Cl)c7)CC6)nn5)C[C@H]4C)cc31)C(=O)N(C1CCC(=O)NC1=O)C2=O (stereo partly shown) [Compound 74],40,25 to 100,–
Cn1c2c(c3ccc(OCCN4CCCN(c5ccc(C(=O)N[C@H]6CC[C@H](Oc7ccc(C#N)c(Cl)c7)CC6)nn5)CC4)cc31)C(=O)N(C1CCC(=O)NC1=O)C2=O (stereo partly shown) [Compound 75],–,–,remaining activity at 0.1 µM [1]: 26%; DC50 [2]: 10 to 25 nM
CCn1c2c(c3ccc(OCCCN4[C@H](C)CN(c5ccc(C(=O)N[C@H]6CC[C@H](Oc7ccc(C#N)c(Cl)c7)CC6)nn5)C[C@@H]4C)cc31)C(=O)N(C1CCC(=O)NC1=O)C2=O (stereo partly shown) [Compound 76],78,–,–
CCn1c2c(c3ccc(OCCN4[C@H](C)CN(c5ccc(C(=O)N[C@H]6CC[C@H](Oc7ccc(C#N)c(Cl)c7)CC6)nn5)C[C@@H]4C)cc31)C(=O)N(C1CCC(=O)NC1=O)C2=O (stereo partly shown) [Compound 77],92,–,–
CCn1c2c(c3ccc(OCCCN4CCN(c5ccc(C(=O)N[C@H]6CC[C@H](N(C)c7ccc(C#N)c(Cl)c7)CC6)nn5)CC4)cc31)C(=O)N(C1CCC(=O)NC1=O)C2=O (stereo partly shown) [Compound 78],57,10 to 25,–
